Experimental data as given in PubChem BioAssay (NCI).
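Grown in 96-well plates, cells were treated for 48 hours with each compound at five concentrations. Insufficient inhibition: endpoint recorded as highest concentration tested. GI50 marks 50% less growth. TGI: total growth inhibition.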

Tests used:
Test in all cases: growth of human tumour cells (NCI), 48 h
[1] = system: 786-0 renal
[2] = system: CAKI-1 renal
[3] = system: IGROV1 ovarian
[4] = system: M14 melanoma
[5] = system: PC-3 prostate
[6] = system: RXF 393 renal
[7] = system: SK-MEL-28 melanoma
[8] = system: SNB-19 CNS
[9] = system: TK-10 renal
[10] = system: UACC-257 melanoma

Structure (SMILES)	TGI [1]	TGI [2]	TGI [3]	TGI [4]	TGI [5]	TGI [6]	TGI [7]	TGI [8]	TGI [9]	TGI [10]	GI50 [2]	GI50 [3]	GI50 [4]	GI50 [5]	GI50 [6]	GI50 [7]	GI50 [8]	GI50 [9]	GI50 [10]
Cc1ccc(-n2cc(-c3ccc(Cl)cc3)c3c(NNC(=S)NCc4ccccc4)ncnc32)cc1	51.1 µM	29.1 µM	54.4 µM	37.6 µM	23.1 µM	56.4 µM	> 100 µM	> 100 µM	68.2 µM	48 µM									
CC1=CC(=O)C[C@]2(C)[C@@H](O)CC(C(C)CO)C[C@@H]12 (some centres not stated)	> 100 µM	> 100 µM	> 100 µM	> 100 µM		> 100 µM	> 100 µM	> 100 µM	> 100 µM	> 100 µM									
CC1(C)CC(=O)C2=C(C1)OC1=C(CC(C)(C)CC1=O)C2c1ccccc1Cl (configuration not stated)	> 100 µM	> 100 µM	> 100 µM	> 100 µM	> 100 µM	> 100 µM	> 100 µM	> 100 µM		> 100 µM									
O=C(C(Cl)=C(Nc1ccccc1)Nc1ccccc1)C(Cl)Cl	69.1 µM	45 µM	> 100 µM	43.8 µM	> 100 µM	56.1 µM	> 100 µM	71.3 µM	> 100 µM	> 100 µM									
C=CC(C)(C)c1cc([C@@H]2COc3cc(O)ccc3C2=O)c(O)c(OC)c1OC	31.9 µM			31.2 µM	34.8 µM	3.58 µM	52.6 µM	30.6 µM	> 100 µM	44.9 µM									
O=C(Cl)c1cc([N+](=O)[O-])cc([N+](=O)[O-])c1	> 100 µM	> 100 µM	> 100 µM	> 100 µM			> 100 µM	> 100 µM	> 100 µM	> 100 µM									
N#Cc1c(C#N)c(-c2ccco2)n(/N=C/c2ccco2)c1N	> 100 µM	> 100 µM	> 100 µM	> 100 µM	> 100 µM	89.1 µM		67.5 µM	> 100 µM	> 100 µM									
CC(C)CCC[C@@H](C)[C@H]1CC[C@H]2[C@@H]3CC=C4CC(OCCCCN(O)CCCSC5OC(CO)C(O)C(O)C5O)CC[C@]4(C)[C@H]3CC[C@]12C (some centres not stated)	32.5 µM	> 100 µM	50 µM	56.3 µM		> 100 µM	> 100 µM	> 100 µM	> 100 µM	> 100 µM									
COc1ccc2c(c1)CCC1C2CCC2(C)C1CC[C@@]2(O)CNC(=O)/C=C/c1ccc(O)c(O)c1 (some centres not stated)		> 100 µM	3.37 µM	7.42 µM	10.2 µM	16.7 µM	31.8 µM	> 100 µM	9.81 µM	35.7 µM	2.68 µM	0.937 µM	2.59 µM	1.92 µM	3.98 µM	4.33 µM	3.31 µM	2.52 µM	18.5 µM
CCO/C=N/C1=C(C#N)C(c2ccc(OC)c(OC)c2)c2c(-c3ccccc3)nn(-c3ccccc3)c2O1 (configuration not stated)	29.2 µM	33.3 µM	14.8 µM	60 µM	> 100 µM	29.8 µM	29.4 µM	29.6 µM		> 100 µM									
Clc1ccc(CCN2CCN(CCCc3ccccc3)CC2)cc1Cl	30.2 µM	33.8 µM	31.3 µM	28.1 µM	31.6 µM		37.5 µM	30.8 µM	30.1 µM	31.3 µM									
Clc1ccc(CCn2ccc3ccccc32)c(Cl)c1	> 100 µM	> 100 µM	> 100 µM	> 100 µM	> 100 µM	> 100 µM		> 100 µM	> 100 µM	> 100 µM									
CN(C)CCCn1c2c(c3ccncc3c1=O)C(=O)c1ccccc1-2		5.53 µM	> 100 µM	5.71 µM	9.78 µM	3.86 µM	4.7 µM		24.3 µM	5.22 µM	0.572 µM	0.955 µM	1.6 µM	1.14 µM	1.14 µM	1.72 µM		1.98 µM	1.68 µM
OB1OCc2ccccc21	> 100 µM	> 100 µM	> 100 µM	> 100 µM	64.4 µM		63 µM	> 100 µM	> 100 µM	> 100 µM									
CCC1OC(=O)C(C)C(OC2CC(C)(O)C(O)C(C)O2)C(C)C(O)C(C)(O)CC(C)C(=O)C(C)C(O)C1C (configuration not stated)		> 300 µM	> 300 µM			> 300 µM	> 300 µM	> 300 µM		> 300 µM									
COC(=O)C1(C(=O)OC)CC2=C(S(=O)(=O)c3ccccc3)C[C@@H](C#N)[C@H]2C1	> 100 µM	> 100 µM	> 100 µM	> 100 µM	> 100 µM		> 100 µM	> 100 µM	> 100 µM	> 100 µM									
CCCCCCCCCCCCCCCCCc1nc(C#N)c(N)o1	> 100 µM	> 100 µM	36.4 µM	> 100 µM	> 100 µM		> 100 µM	> 100 µM	> 100 µM	> 100 µM									
CC(C)(C)C(=O)Cc1cc2c(cc1C(=O)O)S(=O)(=O)NC(C(C)(C)C)=C2	> 100 µM	> 100 µM		> 100 µM			> 100 µM	> 100 µM	> 100 µM	> 100 µM									
COc1ccc(C2Oc3cc(OC)c(O)cc3[C@@H]2C)cc1 (some centres not stated)	31.3 µM	96.2 µM		51.2 µM		> 100 µM	> 100 µM	19.5 µM	> 100 µM	> 100 µM									
Nc1nc(NC(=O)C2=NS(=O)(=O)c3cc(S(N)(=O)=O)c(Cl)cc3N2)n[nH]1	> 100 µM	> 100 µM	> 100 µM	> 100 µM		> 100 µM	> 100 µM	> 100 µM	> 100 µM	> 100 µM									
O=c1n(CCO)nc2n1CCCN2	> 100 µM		> 100 µM	> 100 µM	> 100 µM	> 100 µM	> 100 µM	> 100 µM	> 100 µM										
O=c1[nH]/c(=C/c2ccc(OCc3ccccc3)cn2)c(=O)[nH]/c1=C/c1cccnc1	> 100 µM	> 100 µM		> 22.8 µM	> 100 µM	> 100 µM	> 100 µM	> 100 µM	> 100 µM	> 100 µM									
